Like-named read-outs stand apart in the source and are kept apart here.
Key:
Assay in all cases: biochemical
Assay type in all cases: binding
YES = molecular target: T1, YES (Homo sapiens, UniProt P07947); details: for remaining activity at 10 µM: read-out: percent of DMSO vehicle control
T1 construct: the DNA-tagged SH2 domain concentrations used in this study were <0.1 nM; made in house; host or cells: HEK293 (transient transfection; unpurified cell extract)

STAT1 = molecular target: T2, STAT1 (Homo sapiens, UniProt P42224); details: for remaining activity at 10 µM: read-out: percent of DMSO vehicle control
T2 construct: made in house; host or cells: HEK293 (transient transfection), unpurified extract
T2 sequence (P42224 1-750): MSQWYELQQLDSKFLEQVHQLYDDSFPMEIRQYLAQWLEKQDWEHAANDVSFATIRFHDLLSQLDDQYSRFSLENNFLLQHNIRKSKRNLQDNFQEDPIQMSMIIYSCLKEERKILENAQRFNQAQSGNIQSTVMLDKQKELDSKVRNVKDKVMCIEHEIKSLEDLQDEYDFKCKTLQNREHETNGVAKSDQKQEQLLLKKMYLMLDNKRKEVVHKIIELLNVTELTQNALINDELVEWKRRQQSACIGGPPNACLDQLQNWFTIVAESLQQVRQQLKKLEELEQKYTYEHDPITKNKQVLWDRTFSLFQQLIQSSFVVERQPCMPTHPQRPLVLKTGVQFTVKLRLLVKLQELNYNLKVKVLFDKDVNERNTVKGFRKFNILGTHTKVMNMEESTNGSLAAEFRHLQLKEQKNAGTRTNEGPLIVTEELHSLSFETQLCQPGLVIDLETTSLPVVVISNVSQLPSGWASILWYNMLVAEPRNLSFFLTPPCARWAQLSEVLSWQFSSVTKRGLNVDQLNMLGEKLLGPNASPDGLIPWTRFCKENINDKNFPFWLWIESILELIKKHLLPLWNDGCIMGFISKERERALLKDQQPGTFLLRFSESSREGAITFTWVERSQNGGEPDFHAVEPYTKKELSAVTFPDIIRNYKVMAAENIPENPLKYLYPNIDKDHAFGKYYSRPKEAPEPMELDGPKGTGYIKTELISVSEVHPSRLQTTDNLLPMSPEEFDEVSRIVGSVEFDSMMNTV

SH2D1B = molecular target: T3, SH2D1B (Homo sapiens, UniProt O14796); details: read-out: percent of DMSO vehicle control
T3 construct: made in house; host or cells: HEK293 (transient transfection), unpurified extract
T3 sequence (O14796 1-132): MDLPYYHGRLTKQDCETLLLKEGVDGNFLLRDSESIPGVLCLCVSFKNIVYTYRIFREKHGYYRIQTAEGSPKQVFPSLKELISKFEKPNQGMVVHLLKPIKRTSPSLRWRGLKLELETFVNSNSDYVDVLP

TNS4 = molecular target: T4, TNS4 (Homo sapiens, UniProt Q8IZW8); details: for remaining activity at 10 µM: read-out: percent of DMSO vehicle control
T4 construct: made in house; host or cells: HEK293 (transient transfection), unpurified extract
T4 sequence (Q8IZW8 19-715): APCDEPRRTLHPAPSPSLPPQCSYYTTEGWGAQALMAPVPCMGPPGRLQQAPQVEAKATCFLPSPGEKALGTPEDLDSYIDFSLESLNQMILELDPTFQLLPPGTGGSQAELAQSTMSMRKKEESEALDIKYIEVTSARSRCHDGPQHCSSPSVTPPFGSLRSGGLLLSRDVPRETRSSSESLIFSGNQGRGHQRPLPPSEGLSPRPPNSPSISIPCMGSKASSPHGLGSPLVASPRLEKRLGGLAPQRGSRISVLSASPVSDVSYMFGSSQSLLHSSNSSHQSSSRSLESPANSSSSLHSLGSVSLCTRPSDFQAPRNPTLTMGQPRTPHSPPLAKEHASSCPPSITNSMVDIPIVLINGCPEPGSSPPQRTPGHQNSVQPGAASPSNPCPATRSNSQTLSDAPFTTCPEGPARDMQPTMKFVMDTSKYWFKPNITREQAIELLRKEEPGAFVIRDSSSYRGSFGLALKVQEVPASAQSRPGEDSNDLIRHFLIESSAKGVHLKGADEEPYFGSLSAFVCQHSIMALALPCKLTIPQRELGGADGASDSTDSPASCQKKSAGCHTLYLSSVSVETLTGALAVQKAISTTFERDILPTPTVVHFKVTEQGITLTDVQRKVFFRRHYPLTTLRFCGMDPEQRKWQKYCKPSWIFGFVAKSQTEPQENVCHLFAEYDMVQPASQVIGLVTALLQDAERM

SH2B (SH2B1) = molecular target: T5, SH2B (SH2B1) (Homo sapiens, UniProt Q9NRF2); details: read-out: percent of DMSO vehicle control
T5 construct: made in house; host or cells: HEK293 (transient transfection), unpurified extract

SOCS3 = molecular target: T6, SOCS3 (Homo sapiens, UniProt O14543); details: for KD: dose-response; for remaining activity at 10 µM: read-out: percent of DMSO vehicle control
T6 construct: made in house; host or cells: HEK293 (transient transfection), unpurified extract
T6 sequence (O14543 1-225): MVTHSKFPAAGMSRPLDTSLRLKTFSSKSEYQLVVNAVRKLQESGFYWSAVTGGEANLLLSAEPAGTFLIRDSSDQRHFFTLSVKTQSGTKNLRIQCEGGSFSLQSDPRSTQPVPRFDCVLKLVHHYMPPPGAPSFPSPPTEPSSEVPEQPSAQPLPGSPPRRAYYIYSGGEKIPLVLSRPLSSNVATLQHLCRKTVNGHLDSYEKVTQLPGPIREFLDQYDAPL

GRB7 = molecular target: T7, GRB7 (Homo sapiens, UniProt Q14451); details: read-out: percent of DMSO vehicle control; for remaining activity at 10 µM: primary screen
T7 construct: the DNA-tagged SH2 domain concentrations used in this study were <0.1 nM; made in house; host or cells: HEK293 (transient transfection; unpurified extract)

DAPP1 = molecular target: T8, DAPP1 (Homo sapiens, UniProt Q9UN19); details: read-out: percent of DMSO vehicle control; for remaining activity at 10 µM: primary screen
T8 construct: the DNA-tagged SH2 domain concentrations used in this study were <0.1 nM; made in house; host or cells: HEK293 (transient transfection; unpurified extract)
T8 sequence (Q9UN19 35-129 limits assumed): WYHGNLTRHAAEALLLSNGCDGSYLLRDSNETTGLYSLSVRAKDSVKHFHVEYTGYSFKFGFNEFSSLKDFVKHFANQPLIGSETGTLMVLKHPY

SOCS1 = molecular target: T9, SOCS1 (Homo sapiens, UniProt O15524); details: read-out: percent of DMSO vehicle control
T9 construct: made in house; host or cells: HEK293 (transient transfection), unpurified extract
T9 sequence (O15524 1-211): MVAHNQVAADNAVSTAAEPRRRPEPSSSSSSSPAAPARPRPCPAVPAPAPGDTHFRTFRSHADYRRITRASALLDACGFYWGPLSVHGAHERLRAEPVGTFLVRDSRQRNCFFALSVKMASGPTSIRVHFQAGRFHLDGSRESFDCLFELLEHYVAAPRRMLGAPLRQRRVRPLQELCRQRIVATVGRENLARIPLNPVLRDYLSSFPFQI

GRAP = molecular target: T10, GRAP (Homo sapiens, UniProt Q13588); details: read-out: percent of DMSO vehicle control; for remaining activity at 10 µM: primary screen
T10 construct: the DNA-tagged SH2 domain concentrations used in this study were <0.1 nM; made in house; host or cells: HEK293 (transient transfection; unpurified extract)

PIK3R1(SH2dom.N-term.) = molecular target: T11, PIK3R1(SH2dom.N-term.) (Homo sapiens, UniProt P27986); details: read-out: percent of DMSO vehicle control
T11 construct: SH2dom.N-term. denotes SH2 domain closest to N-terminus of protein; made in house; host or cells: HEK293 (transient transfection, unpurified extract)

CRKL = molecular target: T12, CRKL (Homo sapiens, UniProt P46109); details: read-out: percent of DMSO vehicle control; for remaining activity at 10 µM: primary screen
T12 construct: the DNA-tagged SH2 domain concentrations used in this study were <0.1 nM; made in house; host or cells: HEK293 (transient transfection; unpurified extract)
T12 sequence (P46109 14-102 limits assumed): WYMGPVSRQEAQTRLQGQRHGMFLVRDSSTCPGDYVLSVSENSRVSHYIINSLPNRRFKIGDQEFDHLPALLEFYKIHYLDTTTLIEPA

T7 sequence (Q14451 431-527 limits assumed): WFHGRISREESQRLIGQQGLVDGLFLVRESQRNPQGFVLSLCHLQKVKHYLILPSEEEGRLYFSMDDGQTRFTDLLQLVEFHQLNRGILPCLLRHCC
T1 sequence (P07947 158-255 limits assumed): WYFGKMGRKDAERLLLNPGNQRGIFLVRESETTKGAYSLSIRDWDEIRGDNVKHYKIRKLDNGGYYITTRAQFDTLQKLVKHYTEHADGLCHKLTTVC
T10 sequence (Q13588 60-154 limits assumed): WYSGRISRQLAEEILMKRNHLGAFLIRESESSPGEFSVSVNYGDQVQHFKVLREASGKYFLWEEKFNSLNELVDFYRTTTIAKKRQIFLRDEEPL
T11 sequence (P27986 333-428 limits assumed): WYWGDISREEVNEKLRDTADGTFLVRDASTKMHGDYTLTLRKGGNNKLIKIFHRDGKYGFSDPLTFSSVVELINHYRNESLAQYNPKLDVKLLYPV

Structure (SMILES): O=C(CCl)Nc1cccc(CNC(=O)[C@H](Cc2ccc(OP(=O)(O)O)cc2)NC(=O)Cc2ccc(F)cc2)c1 [MN551]
- remaining activity at 10 µM (YES; primary screen, 10 μM): 46.5 ± 2.1%
- remaining activity at 10 µM (STAT1; primary screen, 10 μM): 49.8 ± 4.1%
- remaining activity at 10 µM (SH2D1B; primary screen, 10 μM): 63.2 ± 6.6%
- KD (TNS4; dose-response): No Hit
- remaining activity at 10 µM (TNS4; primary screen, 10 μM): 25.9%
- remaining activity at 10 µM (SH2B (SH2B1); primary screen, 10 μM): 105%
- KD (SOCS3): No Hit
- remaining activity at 10 µM (SOCS3; primary screen, 10 μM): 24.4%
- remaining activity at 10 µM (GRB7): 71.3 ± 3.5%
- remaining activity at 10 µM (DAPP1): 81.2%
- remaining activity at 10 µM (SOCS1; primary screen, 10 μM): 38.1 ± 7.5%
- remaining activity at 10 µM (GRAP): 48.7%
- remaining activity at 10 µM (PIK3R1(SH2dom.N-term.); primary screen, 10 μM): 99.8 ± 1.6%
- remaining activity at 10 µM (CRKL): 202%

Structure (SMILES): NC(=O)CC[C@H](NC(=O)[C@@H]1CC[C@@H]2CCN(C(=O)CCCCCC#Cc3cccc4c3CN(C3CCC(=O)NC3=O)C4=O)C[C@H](NC(=O)c3cc4cc(C(F)(F)P(=O)(O)O)ccc4[nH]3)C(=O)N21)C(=O)NC(c1ccccc1)c1ccccc1 (some centres unmarked) [SD-36]
- remaining activity at 10 µM (YES): 73.3 ± 11.9%
- Kd (STAT1; dose-response): 180 ± 61 nM
- remaining activity at 10 µM (STAT1): 9.1%
- remaining activity at 10 µM (SH2D1B): 99.6 ± 1.3%
- remaining activity at 10 µM (TNS4): 58.1 ± 8.9%
- remaining activity at 10 µM (SH2B (SH2B1)): 68.4 ± 0.4%
- remaining activity at 10 µM (SOCS3): 100 ± 1.2%
- percent of DMSO vehicle control at 10 µM (GRB7): 66.9 ± 4.6%
- percent of DMSO vehicle control at 10 µM (DAPP1): 126%
- remaining activity at 10 µM (SOCS1): 132 ± 8.8%
- percent of DMSO vehicle control at 10 µM (GRAP): 89.2 ± 4.6%
- remaining activity at 10 µM (PIK3R1(SH2dom.N-term.)): 124%
- percent of DMSO vehicle control at 10 µM (CRKL): 119%

Structure (SMILES): CC(=O)N1CC[C@H]2CC[C@@H](C(=O)N[C@@H](CCC(N)=O)C(=O)NC(c3ccccc3)c3ccccc3)N2C(=O)[C@@H](NC(=O)c2cc3cc(C(F)(F)P(=O)(O)O)ccc3[nH]2)C1 [SI-109]
- remaining activity at 10 µM (YES): 113%
- Kd (STAT1): 180 ± 35 nM
- remaining activity at 10 µM (STAT1): 0%
- remaining activity at 10 µM (SH2D1B): 223%
- remaining activity at 10 µM (TNS4): 110%
- remaining activity at 10 µM (SH2B (SH2B1)): 149%
- remaining activity at 10 µM (SOCS3): 153%
- percent of DMSO vehicle control at 10 µM (GRB7): 135%
- percent of DMSO vehicle control at 10 µM (DAPP1): 149%
- remaining activity at 10 µM (SOCS1): 103%
- percent of DMSO vehicle control at 10 µM (GRAP): 141%
- remaining activity at 10 µM (PIK3R1(SH2dom.N-term.)): 134%
- percent of DMSO vehicle control at 10 µM (CRKL): 125%

Structure (SMILES): C/C(=C\C(=O)N[C@H](C(=O)N1CCC[C@H]1C(=O)N(c1ccccc1)c1ccc(I)cc1)C(C)(C)C)c1ccc(OP(=O)(O)O)cc1 [STAT6-IN-1]
- Kd (YES; dose-response, read-out: KD): 9200 ± 380 nM
- remaining activity at 10 µM (YES; primary screen, 10 μM): 29.5%
- Kd (STAT1; dose-response, read-out: KD): 330 ± 73 nM
- remaining activity at 10 µM (STAT1; primary screen, 10 μM): 0%
- remaining activity at 10 µM (SH2D1B; primary screen, 10 μM): 49.6 ± 1.2%
- Kd (TNS4; dose-response, read-out: KD): 1800 ± 420 nM
- remaining activity at 10 µM (TNS4; primary screen, 10 μM): 14 ± 3.4%
- remaining activity at 10 µM (SH2B (SH2B1); primary screen, 10 μM): 22.6 ± 6.8%
- KD (SOCS3): No Hit
- remaining activity at 10 µM (SOCS3; primary screen, 10 μM): 39.3 ± 22.1%
- remaining activity at 10 µM (GRB7): 47.7 ± 4.2%
- remaining activity at 10 µM (DAPP1): 41.1 ± 13.9%
- remaining activity at 10 µM (SOCS1; primary screen, 10 μM): 98.5 ± 3.5%
- remaining activity at 10 µM (GRAP): 52 ± 15.9%
- remaining activity at 10 µM (PIK3R1(SH2dom.N-term.); primary screen, 10 μM): 44.8 ± 5%
- remaining activity at 10 µM (CRKL): 42.4 ± 0.9%

From article PMC12951562, “SH2scan: Mapping SH2 Domain-Ligand Binding Selectivity for Inhibitors and Degraders” (Journal of Medicinal Chemistry, 2026)
